Laboratory results reported in patent US9244073B2, “Assays for detecting enzymatic activity” (Wellstat Diagnostics, LLC, priority 2011, dated 2016).

Tested on: FXa
Experiment: Detecting FXa activity with biotin- and TAG Plus-conjugated substrate (ECL, loss of signal on cleavage)
Type: biochemical
Text: FXa activity can be measured through the use of peptides that include a FXa recognition sequence, a biotin at one terminus of the peptide and a BV-TAG Plus at the other terminus. In this embodiment, FXa recognizes and specifically cleaves the peptide between the arginine amino acid and the next amino acid toward the carboxy terminus, e.g., between arginine and glycine in peptide probe sequences I and II below. The cleavage by FXa results in the separation of biotin from the BV-TAG Plus. When the biotin is captured with streptavidin coated microparticles (Dynabeads M280-SA, Invitrogen, Cat: 112-06D), this loss of BV-TAG Plus can be measured quantitatively by an ECL instrument such as the M-SERIES® M1MR Analyzer (BioVeris Corporation, Gaithersburg, Md.).
A FXa activity calibrator curve was set up in a 96-well U bottom microtiter plate containing a serial dilution of FXa in an assay buffer [20 mM Tris-HCl (pH 7.2), 100 mM NaCl, 0.5% BSA and 6.0 mM CaCl2], with either peptide probe sequence I or II and M280-SA beads (Dynabeads M280-SA, Invitrogen, Cat: 112-06D). To each well was added 50 μL of 2-fold serial dilutions of FXa from 5000, 2500, 1250, 625, 313, 156 and 78.1 ng/mL and 50 μL of peptide probe (sequence I or II) at 10.0 ng/mL. The plate was incubated for 50 minutes on a MicroMix 5 shaker (Siemens) at room temperature and then 20 μL of 500 μg/mL M280-SA beads were added for an additional 10-minute incubation. The beads were washed once in 150 μL of a PBS-based buffer solution containing 1.8 mM KH2PO4, 10 mM Na2HPO4, 120 mM NaCl, 2.7 mM KCl, 0.033% Tween20 and 0.10% KATHON® CG/ICP II (Cat: 48178-U. Sigma, St. Louis, Mo.) and recovered by attaching a plate magnet to the 96-well plate (LIFESEP™ 96F, Dexter Magnetic Technologies Inc., Elk Grove Village, Ill. 60007). Beads were resuspended in 150 μL of the same PBS-based buffer and read in a M1MR Analyzer (Bioveris).

FXa, sequence (P00742 41-179 limits assumed): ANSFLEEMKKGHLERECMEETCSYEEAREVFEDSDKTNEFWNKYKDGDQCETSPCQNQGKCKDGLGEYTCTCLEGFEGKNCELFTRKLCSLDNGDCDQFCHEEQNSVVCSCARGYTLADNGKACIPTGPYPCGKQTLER
FXa, sequence (P00742 235-488 limits assumed): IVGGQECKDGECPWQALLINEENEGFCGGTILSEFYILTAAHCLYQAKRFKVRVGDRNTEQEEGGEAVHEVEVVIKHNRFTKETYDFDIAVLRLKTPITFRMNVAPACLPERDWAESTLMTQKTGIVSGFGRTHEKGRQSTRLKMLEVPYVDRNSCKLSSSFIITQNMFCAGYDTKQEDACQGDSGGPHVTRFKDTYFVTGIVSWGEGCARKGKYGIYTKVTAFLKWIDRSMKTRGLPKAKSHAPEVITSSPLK

Row | Substance | % Signal Decrease (FXa 78.1 ng/mL) [%] | Mean Signal (FXa 78.1 ng/mL) | % Signal Decrease (FXa 156 ng/mL) [%] | Mean Signal (FXa 156 ng/mL) | % Signal Decrease (FXa 313 ng/mL) [%] | Mean Signal (FXa 313 ng/mL) | % Signal Decrease (FXa 625 ng/mL) [%] | Mean Signal (FXa 625 ng/mL) | % Signal Decrease (FXa 1250 ng/mL) [%] | Mean Signal (FXa 1250 ng/mL) | % Signal Decrease (FXa 2500 ng/mL) [%] | Mean Signal (FXa 2500 ng/mL) | % Signal Decrease (FXa 5000 ng/mL) [%] | Mean Signal (FXa 5000 ng/mL)
1 | Biotin-(mPeg2)IEGRGS (KBv TAG Plus) amide [Peptide Probe Sequence II] | 0 | 339795 | −4 | 325928 | −11 | 302632 | −10 | 305778 | −24 | 256745 | −39 | 208649 | −66 | 116839
2 | Biotin-IEGRGS (KBv TAG Plus) amide [Peptide Probe Sequence I] | −3 | 413958 | −3 | 413232 | −9 | 388137 | −15 | 363185 | −31 | 296182 | −53 | 202007 | −76 | 103604
